According to US5153176A, “Tripeptide derivatives and protease inhibitor composition comprising the same” (Nitto Boseki Co., Ltd., priority 1990, dated 1992):
Counter-ions that a name gives are not always drawn. Like-named read-outs stand apart in the source and are kept apart here. Where a SMILES comes first, the peptide text is derived from it. [ ]: non-standard residue; d: D form. The star is where a group is joined. Tos = Cc1ccc(S(=O)(=O)*)cc1; PhAc = O=C(Cc1ccccc1)*

Columns and labels:
Format in all cases: biochemical
plasmin = molecular target: T1, plasmin (Homo sapiens, UniProt P00747); assay: Assay for inhibitory activity against plasmin (synthetic substrate PS-994); conditions: for IC50: PS-994, pH 7.8, 37° C.
T1 construct: purchased Sankyo (Sankyo Color Test α2 -PI Assay Kit Standard)
T1 sequence (P00747 581-810 limits assumed, species assumed): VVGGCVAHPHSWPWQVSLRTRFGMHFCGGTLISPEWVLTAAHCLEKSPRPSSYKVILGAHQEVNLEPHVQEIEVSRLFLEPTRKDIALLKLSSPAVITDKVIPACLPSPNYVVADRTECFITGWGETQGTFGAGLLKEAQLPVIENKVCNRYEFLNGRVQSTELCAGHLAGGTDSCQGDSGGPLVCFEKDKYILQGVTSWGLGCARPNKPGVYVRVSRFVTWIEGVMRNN
T1 sequence (P00747 97-580 partner limits assumed, species assumed): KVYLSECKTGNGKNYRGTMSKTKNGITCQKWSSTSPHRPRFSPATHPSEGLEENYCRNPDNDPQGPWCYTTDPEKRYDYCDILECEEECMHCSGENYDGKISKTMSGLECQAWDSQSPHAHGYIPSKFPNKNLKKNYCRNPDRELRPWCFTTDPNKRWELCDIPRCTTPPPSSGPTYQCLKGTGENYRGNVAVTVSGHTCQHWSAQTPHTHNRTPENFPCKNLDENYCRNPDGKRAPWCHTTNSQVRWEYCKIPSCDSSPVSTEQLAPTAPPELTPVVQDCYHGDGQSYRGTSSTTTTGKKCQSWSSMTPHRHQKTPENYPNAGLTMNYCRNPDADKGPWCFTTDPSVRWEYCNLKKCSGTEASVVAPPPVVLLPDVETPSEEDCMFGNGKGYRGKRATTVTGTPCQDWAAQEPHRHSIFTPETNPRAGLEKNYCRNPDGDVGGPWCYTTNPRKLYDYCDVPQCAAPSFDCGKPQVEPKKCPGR
Excerpt: (§1) As synthetic substrate used to examine the activity of the inhibitor for inhibiting substrate decomposition with the enzyme, there were used PS-994 (H-D-Lys(Tos)-Phe-Lys-CHA.2HCl, manufactured by Nitto Boseki Co., Ltd.) for plasmin, PS-915 (H-D-Phe-Pro-Arg-CHA.2HCl, manufactured by Nitto Boseki Co., Ltd.) for thrombin and trypsin, PS-2000 (Z-D-Lys(HCO)-Gly-Arg-CHA.HCl, manufactured by Nitto Boseki Co., Ltd.) for factor Xa, S-2302 (H-D-Pro-Phe-Arg-pNA, manufactured by Kabi Co.) for kallikrein, and MUK-34: [drawing 5] for urokinase.
(§2) As plasmin, thrombin, trypsin, factor Xa, kallikrein and urokinase, there were used 0.3 CU/ml of Sankyo Color Test α2 -PI Assay Kit Standard, 1.2 NIH U/ml of Sankyo Color Test ATIII Assay Kit, 2 μg/ml of Code 3703 manufactured by Worsingstone Co., 0.25 U/ml of human factor Xa manufactured by Boehringer Mannheim, 0.12 U/ml of human plasma kallikrein manufactured by Kabi Co., and 1000 U/ml of Mochida Pharmaceutical Urokinase 60,000 (60,000 U/vial), respectively. In the case of CHA type substrate, a color-forming termination solution for Sankyo Color Test Kit was used. Enzyme reactions were carried out at 37° C.
Assay For Inhibitory Activity Against Plasmin
Each aqueous solution (0.1 ml) of the inhibitor having various concentrations was added to 0.4 ml of buffer (150 mM sodium chloride aqueous solution containing 100 mM Tris, pH 7.8) and the mixture was heated for 5 minutes. After 0.2 ml of the plasmin solution was added thereto, the mixture was reacted for 5 minutes. After 0.1 ml of PS-994 solution (10 mM) was added thereto, and the mixture was again reacted for 5 minutes. Then, 2.0 ml of the color-forming termination solution was added to the reaction mixture. Then the mixture was allowed to stand for 10 minutes and absorbance was measured at 700 nm. A concentration of the inhibitor in the reaction system showing 1/2 absorbance that of the case where no inhibitor was present was determined to be IC50.

urokinase = molecular target: T2, urokinase (Homo sapiens, UniProt P00749); assay: Assay for inhibitory activity against urokinase (synthetic substrate MUK-34); conditions: for IC50: MUK-34, pH 8.20, 37° C.
T2 construct: purchased Mochida Pharmaceutical Urokinase 60,000 (60,000 U/vial)
Excerpt: as §1, §2
Assay For Inhibitory Activity Against Urokinase
An aqueous solution (0.1 ml) of […] the inhibitor was added to 0.3 ml of buffer (150 mM sodium chloride aqueous solution containing 50 mM Tris, pH 8.20) and the mixture was heated for 5 minutes. Thereafter 0.1 ml of urokinase solution (containing 50 mM Tris, 150 mM sodium chloride aqueous solution and 0.1% BSA, pH 8.20) was added thereto, and the mixture was reacted for 5 minutes. Furthermore, 10 mM MUK-34 aqueous solution (0.1 ml) was added thereto, and the mixture was reacted for 5 minutes. Then 10% acetic acid aqueous solution (2.0 ml) was added to the mixture to terminate the reaction. Absorbance was measured at 405 nm and IC50 was determined by the method described above.

thrombin = molecular target: T3, thrombin (Homo sapiens, UniProt P00734); assay: Assay for inhibitory activity against thrombin (synthetic substrate PS-915); conditions: for IC50: PS-915, pH 8.5, 37° C.
T3 construct: purchased Sankyo (Sankyo Color Test ATIII Assay Kit)
Excerpt: as §1, §2
Assay For Inhibitory Activity Against Thrombin
Each aqueous solution (0.1 ml) of the inhibitor having various concentrations was added to 0.4 ml of buffer (150 mM sodium chloride aqueous solution containing 150 mM Tris, pH 8.5) and the mixture was heated for 5 minutes. Then, 0.2 ml of the thrombin solution was added thereto and the mixture was reacted for 5 minutes. After 0.1 ml of PS-915 solution (10 mM) was added thereto, the mixture was again reacted for 5 minutes. Then, 2 ml of the color-forming termination solution was added to the reaction mixture. Then the mixture was allowed to stand for 10 minutes and absorbance was measured at 700 nm. IC50 was determined by the method described above.

trypsin = molecular target: T4, trypsin (Bos taurus, UniProt P00760); assay: Assay for inhibitory activity against trypsin (synthetic substrate PS-915); conditions: for IC50: PS-915, pH 8.0, 37° C.
T4 construct: purchased Worsingstone Co. (so in the source)
T4 sequence (P00760 24-246): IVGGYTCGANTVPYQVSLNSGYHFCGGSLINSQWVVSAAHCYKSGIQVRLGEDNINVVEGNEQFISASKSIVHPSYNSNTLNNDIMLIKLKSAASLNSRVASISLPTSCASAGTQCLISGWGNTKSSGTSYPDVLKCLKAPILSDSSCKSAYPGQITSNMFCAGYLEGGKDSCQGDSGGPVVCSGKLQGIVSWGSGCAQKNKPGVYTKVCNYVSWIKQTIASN
Excerpt: as §1, §2
Assay For Inhibitory Activity Against Trypsin
After 0.1 ml of an aqueous solution of the inhibitor was added to 0.5 ml of buffer (150 mM sodium chloride aqueous solution containing 150 mM Tris, pH 8.0) and the mixture was heated for 5 minutes, 0.1 ml of trypsin solution was added thereto. The mixture was reacted for 5 minutes. Furthermore, 0.1 ml of PS-915 solution (10 mM) was added thereto. The mixture was again reacted for 5 minutes. Then, 2 ml of the color-forming termination solution [containing 2.5 mg/ml of soybean trypsin inhibitor (manufactured by Sigma Co., No. T-9003)] was added to the reaction mixture. Then the mixture was allowed to stand for 10 minutes and absorbance was measured at 700 nm. IC50 was determined by the method described above.

human plasma kallikrein = molecular target: T5, human plasma kallikrein (Homo sapiens, UniProt P03952); assay: Assay for inhibitory activity against kallikrein (synthetic substrate S-2302); conditions: for IC50: S-2302, pH 8.0, 37° C.
T5 construct: purchased Kabi Co
T5 sequence (P03952 20-638): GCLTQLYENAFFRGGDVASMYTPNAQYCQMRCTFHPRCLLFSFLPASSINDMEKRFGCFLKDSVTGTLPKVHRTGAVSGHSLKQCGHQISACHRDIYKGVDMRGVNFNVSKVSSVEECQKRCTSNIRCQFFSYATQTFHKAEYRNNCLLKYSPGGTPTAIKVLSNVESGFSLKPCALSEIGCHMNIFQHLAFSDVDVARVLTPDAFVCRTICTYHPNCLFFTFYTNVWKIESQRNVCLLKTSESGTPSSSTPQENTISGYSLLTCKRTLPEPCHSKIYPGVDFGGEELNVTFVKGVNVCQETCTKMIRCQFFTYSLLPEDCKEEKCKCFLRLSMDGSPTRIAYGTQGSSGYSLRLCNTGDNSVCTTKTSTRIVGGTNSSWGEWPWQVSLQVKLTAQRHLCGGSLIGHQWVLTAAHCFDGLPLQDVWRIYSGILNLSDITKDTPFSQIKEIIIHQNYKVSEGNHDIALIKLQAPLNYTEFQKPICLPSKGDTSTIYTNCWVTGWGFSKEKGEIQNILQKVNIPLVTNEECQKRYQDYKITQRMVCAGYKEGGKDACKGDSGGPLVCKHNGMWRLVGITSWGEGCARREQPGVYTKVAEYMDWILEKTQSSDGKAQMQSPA
Excerpt: as §1, §2
Assay For Inhibitory Activity Against Kallikrein
To 0.4 ml of buffer (150 mN sodium chloride aqueous solution containing 50 mM Tris, pH 8.0) was added 0.1 ml each of aqueous solutions of the inhibitor having various concentrations and the mixture was heated for 5 minutes. Then, 0.1 ml of kallikrein solution (containing 0.5% bovine serum albumin, No. A-8022 of Sigma Co.) was added thereto, and the mixture was reacted for 5 minutes. Furthermore, 10 mM S-2302 aqueous solution (0.1 ml) was added thereto, and the mixture was again reacted for 5 minutes. Then, 5 ml of 20% acetic acid aqueous solution was added to terminate the reaction. Absorbance was measured at 405 nm and IC50 was determined by the method described above.

human factor Xa = molecular target: T6, human factor Xa (Homo sapiens, UniProt P00742); assay: Assay for inhibitory activity against factor Xa (synthetic substrate PS-2000); conditions: for IC50: PS-2000, pH 8.5, 37° C.
T6 construct: purchased Boehringer Mannheim
T6 sequence (P00742 235-488 limits assumed): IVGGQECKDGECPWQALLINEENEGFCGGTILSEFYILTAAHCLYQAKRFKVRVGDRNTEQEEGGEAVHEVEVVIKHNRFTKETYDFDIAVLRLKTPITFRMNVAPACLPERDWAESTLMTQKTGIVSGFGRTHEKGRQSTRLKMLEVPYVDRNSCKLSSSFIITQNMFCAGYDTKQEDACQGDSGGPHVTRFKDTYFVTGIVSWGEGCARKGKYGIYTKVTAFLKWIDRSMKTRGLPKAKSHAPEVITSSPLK
T6 sequence (P00742 41-179 partner limits assumed): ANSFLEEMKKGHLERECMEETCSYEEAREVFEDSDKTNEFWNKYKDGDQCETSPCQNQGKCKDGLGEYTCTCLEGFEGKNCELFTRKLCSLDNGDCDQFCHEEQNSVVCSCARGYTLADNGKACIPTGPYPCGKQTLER
Excerpt: as §1, §2
Assay For Inhibitory Activity Against Factor Xa
To 0.3 ml of buffer (150 mM sodium chloride aqueous solution containing 50 mM Tris, pH 8.5) was added 0.1 ml each of an aqueous solution of the inhibitor having various concentrations. The mixture was heated for 5 minutes. Then, 0.1 ml of factor Xa solution (150 mM solution chloride aqueous solution containing 50 mM Tris and 20 mM calcium chloride, pH 8.5) was added thereto, and the mixture was reacted for 5 minutes. Furthermore,5% polyvinylpyrrolidone solution (0.1 ml) containing 10 mM PS-2000 was added thereto, and the mixture was again reacted for 5 minutes. Then, 2 ml of the color-forming termination solution was added to the reaction mixture. Then the mixture was allowed to stand for 10 minutes and absorbance was measured at 700 nm. IC50 was determined by the method described above.

[1] = Table 3, compounds of the invention, read-out: Plasmin
[2] = Table 3, compounds of the invention, read-out: Urokinase
[3] = Table 3, compounds of the invention, read-out: Thrombin
[4] = Table 3, compounds of the invention, read-out: Trypsin
[5] = Table 3, compounds of the invention, read-out: Kallikrein
[6] = Table 3, compounds of the invention, read-out: Factor
[7] = Table 2, known compounds, read-out: IC50 Plasmin
[8] = Table 2, known compounds, read-out: IC50 Urokinase
[9] = Table 2, known compounds, read-out: IC50 Thrombin
[10] = Table 2, known compounds, read-out: IC50 Trypsin
[11] = Table 2, known compounds, read-out: IC50 Kallikrein
[12] = Table 2, known compounds, read-out: IC50 Factor Xa

| Compound | IC50 (plasmin; [1]) | IC50 (urokinase; [2]) | IC50 (thrombin; [3]) | IC50 (trypsin; [4]) | IC50 (human plasma kallikrein; [5]) | IC50 (human factor Xa; [6]) | inhibitory activity against plasmin (in words) (plasmin) | inhibitory activity against urokinase (in words) (urokinase) | inhibitory activity against trypsin (in words) (trypsin) | inhibitory activity against kallikrein (in words) (human plasma kallikrein) | inhibitory activity against factor Xa (in words) (human factor Xa) | IC50 (plasmin; [7]) | IC50 (urokinase; [8]) | inhibitory activity against thrombin (in words) (thrombin) | IC50 (thrombin; [9]) | IC50 (trypsin; [10]) | IC50 (human plasma kallikrein; [11]) | IC50 (human factor Xa; [12]) |
| --- | --- | --- | --- | --- | --- | --- | --- | --- | --- | --- | --- | --- | --- | --- | --- | --- | --- | --- |
| Cc1ccc(S(=O)(=O)NCCCC[C@@H](N)C(=O)N2CCC[C@H]2C(=O)N[C@H](C=O)CCCNC(=N)N)cc1 [Example 1, N-ε-(p-tosyl)-D-lysyl-L-prolyl-L-argininal sulfate] (H-[dK](Tos)-Pro-Arg-aldehyde) | 1500 nM | 35000 nM | 300 nM | 48 nM | 29 nM | 6500 nM |  |  |  |  |  |  |  |  |  |  |  |  |
| N=C(N)NCCC[C@@H](C=O)NC(=O)[C@@H]1CCCN1C(=O)[C@H](N)CCCCNC(=O)Cc1ccccc1 [Example 9, N-ε-phenylacetyl-D-lysyl-L-prolyl-L-argininal sulfate] (H-[dK](PhAc)-Pro-Arg-aldehyde) | 2600 nM | 83000 nM | 930 nM | 68 nM | 200 nM | 15000 nM |  |  |  |  |  |  |  |  |  |  |  |  |
| CC(=O)N[C@@H](CC(C)C)C(=O)N[C@@H](CC(C)C)C(=O)N[C@H](C=O)CCCNC(=N)N [Example A1, acetyl-L-leucyl-L-leucyl-argininal, reference compound] |  |  |  |  |  |  | do not strongly inhibit | do not strongly inhibit | inhibit | do not strongly inhibit | do not strongly inhibit |  |  |  |  |  |  |  |
| N=C(N)NCCC[C@@H](C=O)NC(=O)[C@@H]1CCCN1C(=O)[C@H](N)Cc1ccccc1 [Example A2, D-phenylalanyl-L-prolyl-L-argininal, reference compound] |  |  |  |  |  |  | do not strongly inhibit | do not strongly inhibit | inhibit | do not strongly inhibit | do not strongly inhibit | 19000 nM | 42000 nM | inhibit | 25 nM | 69 nM | 31000 nM | 25000 nM |
| CCOC(=O)c1ccc(OC(=O)CCCCCN=C(N)N)cc1 [Example A3, reference compound] |  |  |  |  |  |  |  |  |  |  |  | 40000 nM | 1100 nM |  | 32000 nM | 1900 nM | 4500 nM | 13000 nM |
| N-α-(2-naphthalenesulfonyl)-N-ε-(p-tosyl)-D-lysyl-L-prolyl-L-argininal 1/2 sulfate [Example 20] | 250 nM | 6600 nM | 1200 nM | 43 nM | 170 nM | 1100 nM |  |  |  |  |  |  |  |  |  |  |  |  |
| N-α-N-ε-di(p-tosyl)-D-lysyl-L-prolyl-L-argininal1/2 sulfate [Example 17] | 60 nM | 3500 nM | 630 nM | 35 nM | 38 nM | 460 nM |  |  |  |  |  |  |  |  |  |  |  |  |
| N-α-isobutoxycarbonyl-N-ε-(p-tosyl)-D-lysyl-L-prolyl-L-argininal 1/2 sulfate [Example 15] | 59 nM | 1400 nM | 440 nM | 22 nM | 37 nM | 350 nM |  |  |  |  |  |  |  |  |  |  |  |  |
| N-ε-(2-naphthalenesulfonyl)-D-lysyl-L-prolyl-L-argininal sulfate [Example 3] | 550 nM |  | 200 nM | 32 nM | 40 nM | 3500 nM |  |  |  |  |  |  |  |  |  |  |  |  |
| N-ε-(p-toluoyl)-D-lysyl-L-prolyl-L-argininal sulfate [Example 7] | 1000 nM | 7900 nM | 350 nM | 11 nM | 200 nM | 4800 nM |  |  |  |  |  |  |  |  |  |  |  |  |
| N-ε-Ethanesulfonyl-D-lysyl-L-prolyl-L-argininal sulfate [Example 5] | 6300 nM | 81000 nM | 1300 nM | 65 nM | 5400 nM | 18000 nM |  |  |  |  |  |  |  |  |  |  |  |  |
| N-ε-acetyl-D-lysyl-L-prolyl-L-argininal sulfate [Example 10] | 4300 nM | 40000 nM | 330 nM | 60 nM | 4000 nM | 4100 nM |  |  |  |  |  |  |  |  |  |  |  |  |
